# Patent publication US7544657B2, “Stabilized Exendin-4 compounds” (Zealand Pharma A/S, priority 2002, dated 2009)
# Key:
# db/db mice = assay: Oral glucose tolerance test (OGTT); assay type: in vivo; details: OGTT in db/db mice, compound i.p. 15 min before oral glucose 1 g/kg, ED50 based on curve fits of AUC0-240 min
# Procedure: Oral Glucose Tolerance Test (OGTT)
# The anti diabetic effect of the present compounds was tested in an oral glucose tolerance test (OGTT). In short, animals were fasted over night, and blood samples were taken from the tip of the tail and the blood glucose measured. The whole blood glucose (mM) concentration was analysed by the immobilised glucose oxidase method using a drop of blood (<5 μl; Elite Autoanalyser, Bayer, Denmark) following the manufacturer's manual. The animals were kept fasted throughout the test. Immediately after the initial blood sample (fasting blood glucose level) test compound or vehicle was administered i.p. Fifteen minutes later an oral dose of glucose ((1 g/kg) Sigma, St. Louis, Mo., U.S.A.)), dissolved in phosphate buffer (pH=7.40) was given, and the animals were returned to their home cages (time=0). […] To analyse the effects of the test compounds on oral glucose tolerance the absolute difference in BG from baseline (fasting BG) was calculated for each time point. The area under the curve (AUC) (FIG. 1-8) for the whole experiment (AUC0-120 min) or (AUC0-240 min) was determined using the trapezoid method. Before starting the experimental series an OGTT was used to stratify animals into groups of 9-10 animals displaying similar glucose tolerances in all groups. Animals displaying excessive glucose excursion 30 min after glucose loading (BG>33 mmol/l) were excluded from the study.
# diabetic db/db mice = details: given systemically; cited from earlier work
# [1] = Table 2, another set of experiments
Substance,ED50 (db/db mice; [1]) [nmol/kg],ED50 (db/db mice; Table 1) [nmol/kg],lowering of blood glucose levels (diabetic db/db mice) [%]
"Compound 2: Stabilized derivative of Compound 1 (SEQ ID NO: 2), obtained by exposing Compound 1 to H2O2 (HGEGTFTSDLSKQMEEEAVRLFIEWLKDGGPSSGAPPSKKKKKK)",0.011,–,–
"Compound 5: Stabilized derivative of Compound 1 (SEQ ID NO: 5), formed by incubation in NH4HCO3 pH 7.9 at 40° C. (HGEGTFTSDLSKQMEEEAVRLFIEWLKDGGPSSGAPPSKKKKKK)",0.043,–,–
"Compound 6: Stabilized derivative of Compound 1 (SEQ ID NO: 6), formed by incubation in NH4HCO3 pH 7.9 at 40° C. (HGEGTFTSDLSKQMEEEAVRLFIEWLKDGGPSSGAPPSKKKKKK)",–,0.013,–
"Compound 14: Stabilized derivative of Compound 1 (SEQ ID NO: 14), formed by incubation in NH4HCO3 pH 7.9 at 40° C. (HGEGTFTSDLSKQMEEEAVRLFIEWLKDGGPSSGAPPSKKKKKK)",–,0.55,–
Exendin-4,–,–,40
des Pro^36 Exendin-4 (1-39)-K6 [Compound 1],0.073,0.049,–
